The source of these data is patent US9029414B2, “Triterpenoid compounds and methods of use thereof” (Biotechnology Research Corporation, priority 2008, dated 2015).

The subject of test [1] is phosphorylated STAT3, STAT4, STAT6 in splenocytes of EAE mice. As to the kind of experiment: Western blot of phosphorylated STAT proteins in EAE splenocytes. It is filed as cell-based. The settings on record: exogenous 30 μM, MOG 25 μg/mL, splenocytes of vehicle-treated EAE mice. As for the experimental part:
On day 21, EAE mice were sacrificed by cervical dislocation and spleens were removed aseptically. The removed spleens were then cut with sterilized scissors and strained through […] mesh (BD Bioscience) with a plunger of 5 mL syringe (BD Bioscience) in 9 mL of RPMI 1640 (Invitrogen) with 100 U/mL penicillin and 100 μg/mL streptomycin (Sigma). The cell mixture was then added to 9 mL of Lympholyte (Cedarlane Laboratories) for gradient separation of splenocytes from red bloods cells by centrifugation at 1500 g for 20 min. After the centrifugation, the lympholyte layer containing splenocytes were carefully removed and washed with 10 mL of RPMI 1640 at 800 g for 10 min for three times. The isolated splenocytes were seeded onto different plate format and cultured with RPMI 1640 medium (Invitrogen) supplement with 10% heat inactivated fetal bovine serum (Invitrogen) and 100 U/mL penicillin and 100 μg/mL streptomycin at 37° C. CO2 incubator.
Splenocytes of EAE mice were cultured at the density of 1×10^7 cells in 6-well plates (Falcon) and treated with the absence or presence of the MOG peptide (25 μg/mL) (Hooke Laboratories), DA001, and DA021 (30 μM) for 24 h. After overnight incubation, the splenocytes were lysed with RIPA containing antipain dihydrochloride, trypsin inhibitor, leupeptin, aprotinin, sodium orthovanadate, benzamidine and phenyl methane sulphonyl fluoride. After centrifugation at 14000 rpm for 15 min, 4° C., protein concentrations were determined by Dc Protein Assay kit (Bio-Rad). 20 μg of each sample was subjected to 10% SDS-PAGE with 20 mA for 3 h. Immunoblot analysis was performed by transfer of proteins onto nitrocellulose membranes using a mini trans-blot apparatus (Bio-Rad). After 2 h blocking with milk, the membranes were incubated overnight at 4° C. with specific primary Abs (1:1000): anti-phospho-Stat 3 (Cell signaling), anti-phospho-Stat 4 (BD Bioscience), and anti-phospho-Stat 6 (Cell signaling). Anti-α-tubulin (Sigma) was used as a loading control. After washing, subsequent incubation with anti-rabbit or anti-mouse HRP-conjugated secondary antibody (1:3000) (Cell Signaling) for 1 h at room temperature was carried out. The signal was detected by ECL Western blot detection kit (GE Healthcare).
The efficacy of DA compounds in modulating the expression of pro-inflammation proteins was examined. Western blot analysis was performed on cultured splenocytes isolated from the spleen of EAE mice and the expression of signal transducers and activators of transcription (STAT) proteins was examined in response to exogenous treatments of MOG (25 μg/mL), DA001 (30 μM) and DA021 (30 μM). Exogenous addition of MOG [MOG (Ex)] to EAE splenocytes is shown to robustly increase the phosphorylation of STAT3, STAT4, and STAT6.
Western blot analysis was performed as described in the methodology.
On the technique in general: Immunoblotting shows a protein as a band on a membrane.

Test [2] deals with human MC1 receptor (Homo sapiens, UniProt Q01726). Description: Radioligand competition binding assay, MC1. As for the experimental part: DA001 was evaluated against 109 receptor binding assays and 17 enzyme assays, comprising of selective, central and peripheral therapeutically-relevant targets. Radioligand competition assays were conducted whereby DA001 was tested at one concentration (10 μM) in duplicate. […] It could compete with the radioligand [^125I-NDP-alpha-melanocyte-stimulating hormone (α-MSH)] binding for MC1 and MC4 but not MC3 and MC5 nor the related family, the melanin concentrating hormone receptors (MCH1 and MCH2).
human MC1 receptor, sequence (Q01726 whole entry): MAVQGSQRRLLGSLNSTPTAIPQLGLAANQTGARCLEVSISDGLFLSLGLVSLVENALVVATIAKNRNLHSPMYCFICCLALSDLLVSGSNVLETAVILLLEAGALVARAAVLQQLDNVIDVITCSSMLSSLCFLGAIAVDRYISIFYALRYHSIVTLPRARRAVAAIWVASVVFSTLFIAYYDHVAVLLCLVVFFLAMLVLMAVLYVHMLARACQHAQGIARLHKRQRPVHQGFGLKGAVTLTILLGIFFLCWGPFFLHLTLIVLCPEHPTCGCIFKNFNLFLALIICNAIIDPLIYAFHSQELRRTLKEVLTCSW
To determine the IC50 for DA001 to inhibit α-MSH binding on MC1 and MC4 receptor, the compound was further characterized by a dose-dependent study. DA001 was evaluated with 8 concentrations on MC1 and MC4 receptor binding assays.
The specific ligand binding to the receptors is defined as the difference between the total binding and the nonspecific binding determined in the presence of an excess of unlabelled ligand. The results are expressed as a percent of control specific binding [(measured specific binding/control specific binding)×100] and as a percent inhibition of control specific binding {100−[(measured specific binding/control specific binding)×100]} obtained in the presence of DA001. The IC50 values (concentration causing a half-maximal inhibition of control specific binding) and Hill coefficients (nH) were determined by non-linear regression analysis of the competition curves generated with mean replicate values using Hill equation curve fitting (Y=D+[(A−D)/(1+(C/C50)nH)], where Y=specific binding, D=minimum specific binding, A=maximum specific binding, C=compound concentration, C50=IC50, and nH=slope factor). This analysis was performed using a software developed at Cerep (Hill software) and validated by comparison with data generated by the commercial software SigmaPlot® 4.0 for Windows® (© 1997 by SPSS Inc.).
A general note: Displacement assays read how much labelled ligand stays bound in the presence of the test substance.

In test [3] the test system is LPS-induced TNF-α in serum. As to the kind of experiment: Murine model of lipopolysaccharide-induced cytokine production. The class given is in vivo, Swiss-Webster mice. As for the experimental part: This is a contract research performed by Washington Biotechnology Inc., Columbia, Md., protocol 1077. Swiss-Webster mice (female, Harlan Sprague-Dawley, 5-6 weeks) were weighed and dosed orally with 10 ml/kg water, prednisolone at 10 mg/kg, or DA021 at 30 mg/kg or 100 mg/kg. Thirty minutes after oral dosing, lipopolysaccharides (LPS) at 2 mL/kg was injected. Two hours after LPS injection, the mice were anesthetized and exsanguinated into serum separator micro-container tubes. The blood was processed to serum. The serum samples were assayed for tumor necrosis factor-α (TNFα) concentration by ELISA (Pierce) according to the manufacturer's protocol.
Evaluation of the efficacy and potency of orally administered DA021 to inhibit the lipopolysaccharide (LPS)-induced release of tumor necrosis factor-α (TNF-α) in mice was carried out. LPS is a widely used endotoxin, isolated from the bacteria, E. coli in inducing acute inflammation in an organism. Prednisolone is a synthetic corticosteroid drug that is commonly used in inflammatory reactions. It is a broad range immunosuppressant. Based on FIG. 29, there was a marked increase in the amount of TNF-α in serum upon LPS treatment in mice.
Two hours after LPS injection, the serum was collected from the mice. The serum samples were assayed for tumor necrosis factor-α (TNFα) concentration by ELISA (Pierce) according to the manufacturer's protocol. N=10, significance was calculated versus LPS+vehicle using the Student's T-test, *=p≦0.05, #=p≦1×10^−4.

Regarding `C=C(C)[C@@H]1CC[C@]2(C(=O)O)CC[C@]3(C)C(CC[C@@H]4[C@@]5(C)CC[C@H](O[C@@H]6OC[C@H](O)[C@H](O)[C@H]6O[C@@H]6O[C@@H](C)[C@H](O)[C@@H](O)[C@H]6O)[C@@](C)(CO)[C@@H]5CC[C@]43C)[C@@H]12` (stereo partly drawn) [DA001, 3-O-[α-L-rhamnopyranosyl-(1→2)-α-L-arabinopyranosyl]-3,23-dihydroxy-20(29)-lupen-28-oic acid], in test [1], the “MOG-induced STAT3 phosphorylation” value is “significantly decreased” and the “MOG-induced STAT4 phosphorylation” value was “significantly decreased”. This compound also returned a Ki in test [2] of 5.2 µM. In test [2] (8 concentrations), this compound gave an IC50 of 10 µM. This compound registered a nH in test [2] (Hill coefficient) of 0.9.
As to `C=C(C)[C@@H]1CC[C@]2(/C=N/O)CC[C@]3(C)C(CCC4[C@@]5(C)CCC(=O)[C@@](C)(CO)[C@@H]5CC[C@]43C)C12` (stereo partly shown) [DA021], the “inhibition of the LPS response (serum TNF-α)” value in test [3] (30 mg/kg orally 30 min before LPS) stood at 73%. Moreover, the “inhibition of the LPS response (serum TNF-α)” value in test [3] (100 mg/kg orally 30 min before LPS) worked out at 77%. Further, in test [1], the “MOG-induced STAT3 phosphorylation” value was “significantly decreased”, the “MOG-induced STAT4 phosphorylation” value is recorded as “significantly decreased” and the STAT6 phosphorylation result is given as “marked decrease”.

What is called Ki is the equilibrium dissociation constant of an inhibitor or competing ligand from its target. Low values mean higher affinity, high ones lower affinity. A word on the IC50: it is the point on the concentration scale where inhibition reaches its midpoint. Low readings indicate greater potency in that assay, high ones weaker potency in that assay.
